One data set is described as follows: cells. As to conditions: Homo sapiens, HEK-293T, 0.5 h.
Data set [1] addresses Stimulator of interferon genes protein (Homo sapiens, UniProt Q86WV6, R293Q). Kind of data set: Activation of recombinant human STING haplotype R293Q mutant expressed in 293T cells measured after 30 mins in presence of digitonin A by bright Glo-luciferase reporter gene assay. The class given is cell-based.
Data set [2] deals with T1, Stimulator of interferon genes protein (Homo sapiens, UniProt Q86WV6). Kind of data set: Activation of recombinant human wild-type STING expressed in 293T cells measured after 30 mins in presence of digitonin A by bright Glo-luciferase reporter gene assay. Format: cell-based.
T1 sequence (Q86WV6 whole entry): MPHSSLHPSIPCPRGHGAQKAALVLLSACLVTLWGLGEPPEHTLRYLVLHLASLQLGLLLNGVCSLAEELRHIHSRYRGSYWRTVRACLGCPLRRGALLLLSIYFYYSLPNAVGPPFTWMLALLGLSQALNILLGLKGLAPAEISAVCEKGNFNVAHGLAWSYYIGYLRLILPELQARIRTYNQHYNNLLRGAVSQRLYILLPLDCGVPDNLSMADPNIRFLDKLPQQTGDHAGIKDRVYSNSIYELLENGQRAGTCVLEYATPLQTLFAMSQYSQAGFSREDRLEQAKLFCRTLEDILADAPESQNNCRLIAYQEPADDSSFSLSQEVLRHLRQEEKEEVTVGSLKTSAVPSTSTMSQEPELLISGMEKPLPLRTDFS
Data set [3] concerns the target T1, Stimulator of interferon genes protein.
Description: Binding affinity to recombinant human wild-type STING assessed as change in melting temperature at 150 uM by SYPRO orange dye based differential scanning fluorimetric method
For data set [4] the target is unchanged. Briefly: Activation of recombinant human wild-type STING expressed in 293T cells incubated for 7 hrs in absence of digitonin A by bright Glo-luciferase reporter gene assay. The class given is cell-based.
Data set [5] is described as follows: Cytotoxicity against human PBMC-derived CD3-positive T cells assessed as effect on cell viability at 12.5 uM incubated for 16 hrs by Zombie-NIR staining-based flow cytometry.
The next data set deals with Monocyte. Kind of data set: Cytotoxicity against human PBMC-derived monocytes assessed as CD3-negative CD14 positive monocyte viability at 12.5 uM incubated for 16 hrs by Zombie-NIR staining-based flow cytometry relative to control. Format: functional.
For a further data set, the species on record is Homo sapiens. Format: cell-based.
Data set [6] deals with Stimulator of interferon genes protein (Homo sapiens, UniProt Q86WV6, G230A/R293Q/R71H). Briefly: Activation of recombinant human STING haplotype R71H/G230A/R293Q mutant expressed in 293T cells measured after 30 mins in presence of digitonin A by bright Glo-luciferase reporter gene assay. Format: cell-based.
Chain of Stimulator of interferon genes protein (Homo sapiens, UniProt Q86WV6, G230A/R293Q/R71H) (Q86WV6 whole entry R71H/G230A/R293Q): as the sequence (Q86WV6 whole entry) above, with R71H, G230A, R293Q counted along it
Data set [7] addresses Stimulator of interferon genes protein (Homo sapiens, UniProt Q86WV6, G230A/R293Q). Briefly: Activation of recombinant human STING haplotype G230A/R293Q mutant expressed in 293T cells measured after 30 mins in presence of digitonin A by bright Glo-luciferase reporter gene assay. Format: cell-based.

The values below come from ChEMBL document CHEMBL4334523, “Enzymatic Preparation of 2'-5',3'-5'-Cyclic Dinucleotides, Their Binding Properties to Stimulator of Interferon Genes Adaptor Protein, and Structure/Activity Correlations” (J Med Chem, 2019).

pEC50: −log10 of the molar value.

Chain of Stimulator of interferon genes protein (Homo sapiens, UniProt Q86WV6, R293Q) (Q86WV6 whole entry R293Q): as the sequence (Q86WV6 whole entry) above, with R293Q counted along it
Chain of Stimulator of interferon genes protein (Homo sapiens, UniProt Q86WV6, G230A/R293Q) (Q86WV6 whole entry G230A/R293Q): as the sequence (Q86WV6 whole entry) above, with G230A, R293Q counted along it
Description for cells: Activation of recombinant human STING haplotype R232H mutant expressed in 293T cells measured after 30 mins in presence of digitonin A by bright Glo-luciferase reporter gene assay

Regarding `Nc1nc2c(ncn2[C@@H]2O[C@@H]3COP(=O)(O)O[C@H]4[C@@H](O)[C@H](n5cnc6c(=S)[nH]cnc65)O[C@@H]4COP(=O)(O)O[C@@H]2[C@@H]3O)c(=O)[nH]1`, the pEC50 in the data set “cells” is 5.77; in data set [1], 5.08; in [2] it was 6.52; in [4] it was 3.74; in data set [6] it was 6.70; in data set [7], 6.82. The thermal shift (ΔTm) in [3] is 7.3 °C. Further, the results for the Activity result (in [5]; with Monocyte) were “Non-Toxic” and 10%, respectively. For the same compound, in the data set listed under Homo sapiens, the max activation is less than 30%.
Regarding `Nc1nc2c(ncn2[C@@H]2O[C@@H]3COP(=O)(O)O[C@H]4[C@@H](O)[C@H](n5cnc6c(O)nc(O)nc65)O[C@@H]4COP(=O)(O)O[C@@H]2[C@@H]3O)c(=O)[nH]1`, the negative logarithm of the EC50 (pEC50) was 4.68 in “cells”; 4.48 in [1]; 5.74 in data set [2]; less than 3.52 in [4]; 5.77 in [6]; 5.70 in data set [7]. For the same compound, the ΔTm in data set [3] came to 2.4 °C. Besides, the Activity entry in data set [5] was “Non-Toxic”; in the data set on Monocyte it was 45%. This compound gave a max activation in the data set filed under Homo sapiens of less than 30%.
With `Nc1nc2c(ncn2[C@@H]2O[C@@H]3COP(=O)(O)O[C@H]4[C@H](O)[C@H](n5cnc6c(N)nc(F)nc65)O[C@@H]4COP(=O)(O)O[C@@H]2[C@@H]3O)c(=O)[nH]1`, the pEC50 was 5.19 in the data set “cells”; 6.22 in data set [1]; 6.70 in data set [2]; 3.73 in data set [4]; 7.00 in data set [6]; 7.22 in data set [7]. The thermal shift (ΔTm) in data set [3] was determined as 12.3 °C. Besides, the Activity entry in data set [5] is on record as “Non-Toxic”; in the data set with Monocyte it was 3%. In the data set filed under Homo sapiens, the max activation was less than 30%.
As to `Nc1nc2c(ncn2[C@@H]2O[C@@H]3COP(=O)(O)O[C@H]4[C@@H](O)[C@H](n5nnc6c(N)ncnc65)O[C@@H]4COP(=O)(O)O[C@@H]2[C@@H]3O)c(=O)[nH]1`, the pEC50 in the data set “cells” is 4.47; in data set [1], 5.24; in data set [2] it was 6.64; in data set [4] it was less than 3.52; in data set [6], 6.51; in data set [7], 6.68. Also, in data set [3], the ΔTm was 3.9 °C. Moreover, the Activity result in data set [5] is “Non-Toxic”; in the data set with Monocyte, 2.3%. Also, the max activation in the data set listed under Homo sapiens was less than 30%.
Consider `NC(=O)c1ncn([C@@H]2O[C@@H]3COP(=O)(O)O[C@@H]4[C@H](O)[C@@H](COP(=O)(O)O[C@H]3[C@H]2O)O[C@H]4n2cnc3c(=O)[nH]c(N)nc32)c1N`, for which the pEC50 is less than 4.35 in the data set “cells”; 4.34 in data set [1]; 6.49 in data set [2]; less than 3.52 in data set [4]; 6.68 in [6]; 6.68 in [7]. In [3], the ΔTm came out at 1.7 °C. Also, the Activity entry in data set [5] is on record as “Non-Toxic”; in the data set with Monocyte it was 83%. In the data set filed under Homo sapiens, this compound yielded a max activation of less than 30%.
For `Nc1nc2c(ncn2[C@@H]2O[C@@H]3COP(=O)(O)O[C@H]4C[C@H](n5cnc6c(N)nc(F)nc65)O[C@@H]4COP(=O)(O)O[C@@H]2[C@@H]3F)c(=O)[nH]1`, the negative logarithm of the EC50 (pEC50) in “cells” was 5.70; in data set [1] it was 6.15; in [2], 7.30; in data set [4] it was less than 3.52; in data set [6] it was 7.00; in data set [7], 6.77. The shift in melting temperature (ΔTm) in data set [3] worked out at 10.7 °C. Further, the results for the Activity result (in [5]; in the data set on Monocyte) were “Non-Toxic” and 0.2%, respectively. The compound further displayed a max activation in the data set listed under Homo sapiens of less than 30%.
Consider `Nc1nc2c(ncn2[C@@H]2O[C@@H]3COP(=O)(O)O[C@H]4[C@@H](N)[C@H](n5cnc6c(N)ncnc65)O[C@@H]4COP(=O)(O)O[C@@H]2[C@@H]3O)c(=O)[nH]1`, for which the negative logarithm of the EC50 (pEC50) in the data set “cells” was 5.85; in data set [1] it was 6.62; in [2], 7.70; in data set [4], 3.97; in [6] it was 7.52; in data set [7] it was 7.70. Besides, the ΔTm in data set [3] was 9.4 °C. Moreover, the Activity entry in data set [5] was “Non-Toxic”; with Monocyte, 3%. In the data set filed under Homo sapiens, this compound yielded a max activation of less than 30%.
As to `Nc1nc(N)c2ncn([C@@H]3O[C@@H]4COP(=O)(O)O[C@@H]5[C@H](O)[C@@H](COP(=O)(O)O[C@H]4[C@H]3F)O[C@H]5n3cnc4c(=O)[nH]c(N)nc43)c2n1`, the negative logarithm of the EC50 (pEC50) in “cells” was 6.77; in data set [1], 6.89; in [2], 7.70; in data set [4] it was 4.56; in data set [6], 7.40; in [7], 7.52. Further, the shift in melting temperature (ΔTm) in [3] came out at 14.4 °C. Further, the Activity entry in [5] is “Non-Toxic”; in the data set on Monocyte it was 2.5%. In the data set filed under Homo sapiens, this compound had a max activation of less than 30%.
On to `NC(=O)c1ncn([C@@H]2O[C@@H]3COP(=O)(O)O[C@H]4[C@@H](O)[C@H](n5cnc6c(N)ncnc65)O[C@@H]4COP(=O)(O)O[C@@H]2[C@@H]3O)c1N`, for which the pEC50 in “cells” is less than 4.35; in data set [1], 4.33; in data set [2] it was 6.08; in data set [4], less than 3.52; in data set [6], 6.40; in [7], 6.38. Moreover, the ΔTm in data set [3] was 0.6 °C. Also, the Activity result in [5] is “Non-Toxic”; in the data set with Monocyte, 87%. In the data set filed under Homo sapiens, this compound had a max activation of less than 30%.
As to `Nc1nc2c(ccn2[C@@H]2O[C@@H]3COP(=O)(O)O[C@H]4[C@@H](O)[C@H](n5cnc6c(N)ncnc65)O[C@@H]4COP(=O)(O)O[C@@H]2[C@@H]3O)c(=O)[nH]1`, the negative logarithm of the EC50 (pEC50) in “cells” is 5.46; in data set [1] it was 5.96; in data set [2] it was 7.40; in data set [4], 4.39; in [6], 7.00; in data set [7] it was 7.22. The ΔTm in [3] was 6.6 °C. Also, the Activity entry in data set [5] was “Non-Toxic”; in the data set on Monocyte, 0.9%. Further, the max activation in the data set filed under Homo sapiens was less than 30%.
Consider `Nc1ncc2ncn([C@@H]3O[C@@H]4COP(=O)(O)O[C@@H]5[C@H](O)[C@@H](COP(=O)(O)O[C@H]4[C@H]3O)O[C@H]5n3cnc4c(=O)[nH]c(N)nc43)c2n1`, for which the pEC50 in the data set “cells” was 5.80; in [1], 6.15; in [2] it was 7.70; in data set [4], 4.27; in data set [6], 7.40; in [7], 7.40. In addition, in data set [3], the ΔTm turned out to be 9.2 °C. The Activity result in data set [5] is recorded as “Non-Toxic”; in the data set with Monocyte, 0.6%. This compound also returned a max activation in the data set filed under Homo sapiens of less than 30%.
Turning to `Nc1nc2c([C@@H]3O[C@@H]4COP(=O)(O)O[C@H]5[C@@H](O)[C@H](n6cnc7c(N)ncnc76)O[C@@H]5COP(=O)(O)O[C@@H]3[C@@H]4O)scc2c(=O)[nH]1`, the pEC50 was 5.22 in the data set “cells”; 5.52 in data set [1]; 6.96 in data set [2]; 3.62 in [4]; 6.60 in data set [6]; 7.30 in data set [7]. Besides, the shift in melting temperature (ΔTm) in data set [3] stood at 2.8 °C. The Activity result in data set [5] is reported as “Non-Toxic”; in the data set on Monocyte, 0.9%. This compound also gave a max activation in the data set filed under Homo sapiens of less than 30%.
In the case of `Nc1nc2c(ncn2[C@@H]2O[C@@H]3COP(=O)(O)O[C@H]4[C@@H](F)[C@H](n5cnc6c(N)nc(F)nc65)O[C@@H]4COP(=O)(O)O[C@@H]2[C@@H]3O)c(=O)[nH]1`, the pEC50 in “cells” is 7.15; in [1], 7.10; in data set [2], 7.70; in data set [4], 4.96; in data set [6], 7.10; in data set [7], 7.52. For the same compound, the ΔTm in data set [3] was determined as 14.7 °C. Besides, the Activity entry in data set [5] is “Non-Toxic”; with Monocyte, 0.4%. In the data set filed under Homo sapiens, this compound showed a max activation of less than 30%.
On to `Nc1nc2c(ncn2[C@@H]2O[C@@H]3COP(=O)(O)O[C@H]4[C@@H](O)[C@H](n5cnc6c(=O)[nH]cnc65)O[C@@H]4COP(=O)(O)O[C@@H]2[C@@H]3O)c(=O)[nH]1`, for which the pEC50 in “cells” was 5.68; in [1], 5.66; in data set [2] it was 7.30; in data set [4], 3.83; in data set [6], 6.52; in data set [7], 6.85. Also, the ΔTm in data set [3] is 8.8 °C. Besides, the Activity entry is “Non-Toxic” in data set [5] and 17% in the data set on Monocyte. The same compound gave a max activation in the data set listed under Homo sapiens of less than 30%.
Turning to `Cn1c(N)nc2c(ncn2[C@@H]2O[C@@H]3COP(=O)(O)O[C@H]4[C@@H](O)[C@H](n5cnc6c(N)ncnc65)O[C@@H]4COP(=O)(O)O[C@@H]2[C@@H]3O)c1=O`, the pEC50 in “cells” was 6.05; in data set [1], 6.11; in data set [2], 7.70; in [4] it was 4.40; in data set [6] it was 7.40; in data set [7], 7.40. In addition, in data set [3], the ΔTm worked out at 9 °C. The Activity result was “Non-Toxic” in [5] and 2% in the data set on Monocyte. The same compound displayed a max activation in the data set filed under Homo sapiens of less than 30%.
